Source: PMC7002685, “Inhibition of vascular calcification by inositol phosphates derivatized with ethylene glycol oligomers” (Nature Communications, 2020)

Experiments:
vascular calcification = test: Adenine and high-phosphate-diet-induced rat model of VC; assay type: in vivo, male Wistar rats
Description: Uremia increases the risk for developing VC. Therefore, the effect of (OEG2)2-IP4 on the development of VC was investigated in a previously established adenine and high-phosphate-diet-induced rat model of VC that results in uremia and chronic renal failure. […] (OEG2)2-IP4 was administered via a s.c.-implanted osmotic pump at doses of 5, 15, or 50 mg/kg/day for 4 weeks, and treatment was initiated 1 week after the start of adenine supplementation. […] Animals in this model developed severe CKD (Supplementary Fig. 20), which was accompanied by substantial weight loss (Supplementary Fig. 21). No significant difference in the level of renal failure and body weight loss was observed between the different treatment groups, with the exception of creatinine at week 3 and serum phosphate at sacrifice in the 15 mg/kg/day group (Supplementary Fig. 20).
The inhibitory effect of (OEG2)2-IP4 on heart calcifications was significant starting at 15 mg/kg/day (Fig. 6b). The compound’s activity was also evident following von Kossa staining (Fig. 6c) on the thoracic part of the aorta, and quantification of the von Kossa-positive area (Fig. 6d). […] In the femoral artery, reduction in bulk calcium was insignificant for all tested groups, likely due to the low level of calcification detected in the vehicle control (Fig. 6f, Supplementary Table 9).
Male Wistar rats (Charles River) were housed two per cage with free access to water and standard chow and submitted to a 12-h light/dark cycle. Compounds were administered and doses calculated using the salt form. Animals were randomly assigned to four groups of 12 animals each and given a high-phosphate (1.03%) diet for 2 weeks before starting a special diet to initiate uremia. Uremia/VC was induced in all animals by freely fed diet containing high-phosphate (0.92%), low-protein (2.5% instead of 19%), and adenine (0.75%) for 4 weeks. The diet was again switched to a high-phosphate (1.03%) diet for 1 week, after which rats were sacrificed.
The first group was treated with vehicle (double distilled (d.d.) water), the second, third, and fourth groups were treated with daily doses equivalent of 5, 15, and 50 mg/kg of (OEG2)2-IP4, respectively, in 2 mL d.d. water starting 1 week after the administration of the adenine diet. Compounds were delivered continuously for 4 weeks via osmotic pumps (type 2ML4; Alzet, Cupertino, CA, USA) implanted subcutaneously under anesthesia 1 week after the start of the adenine diet. Blood sampling for serum and plasma at baseline, week 1, and week 3 was performed in restrained, conscious animals. […] Serum samples were analyzed for creatinine according to the Jaffe method, calcium (using flame atomic absorption spectrometry[74]), and phosphate (DiaSys Diagnostic Systems, Holzheim, Germany) concentrations. In serum samples taken at sacrifice, the CPP-associated calcium was quantified by calculating the difference between total serum calcium (measured in serum supernatants after centrifugation at 3000 × g, RT, 15 min) and serum calcium after removing CPPs by centrifugation (16,000 × g and 4 °C for 120 min)[26]. In addition, serum aliquots were centrifuged (10,000 × g, 4 °C, 30 min) and T50’s were determined as described above. CPP size was monitored by hourly DLS measurements at 37 °C, after spiking cleared serum samples with calcium (10 mM) and phosphate (6 mM), for a total of 8 h[29].
At sacrifice, the heart, the abdominal aorta, left carotids, and femoral arteries were collected. The presence of calcification in each animal was evaluated on paraffin-embedded, von Kossa stained sections of the thoracic aorta (as described previously[74]), as well as by measurement of the total calcium content in the heart and vascular tissue samples by flame atomic absorption spectrometry.

[1] = molecular target: T1, Peptidase, Angiotensin Converting Enzyme (Oryctolagus cuniculus, UniProt P12822); test: Off-target 107300; assay type: biochemical, Rabbit
T1 construct: purchased Eurofins Panlabs Discovery Services Taiwan, Ltd
T1 sequence (P12822 34-1310): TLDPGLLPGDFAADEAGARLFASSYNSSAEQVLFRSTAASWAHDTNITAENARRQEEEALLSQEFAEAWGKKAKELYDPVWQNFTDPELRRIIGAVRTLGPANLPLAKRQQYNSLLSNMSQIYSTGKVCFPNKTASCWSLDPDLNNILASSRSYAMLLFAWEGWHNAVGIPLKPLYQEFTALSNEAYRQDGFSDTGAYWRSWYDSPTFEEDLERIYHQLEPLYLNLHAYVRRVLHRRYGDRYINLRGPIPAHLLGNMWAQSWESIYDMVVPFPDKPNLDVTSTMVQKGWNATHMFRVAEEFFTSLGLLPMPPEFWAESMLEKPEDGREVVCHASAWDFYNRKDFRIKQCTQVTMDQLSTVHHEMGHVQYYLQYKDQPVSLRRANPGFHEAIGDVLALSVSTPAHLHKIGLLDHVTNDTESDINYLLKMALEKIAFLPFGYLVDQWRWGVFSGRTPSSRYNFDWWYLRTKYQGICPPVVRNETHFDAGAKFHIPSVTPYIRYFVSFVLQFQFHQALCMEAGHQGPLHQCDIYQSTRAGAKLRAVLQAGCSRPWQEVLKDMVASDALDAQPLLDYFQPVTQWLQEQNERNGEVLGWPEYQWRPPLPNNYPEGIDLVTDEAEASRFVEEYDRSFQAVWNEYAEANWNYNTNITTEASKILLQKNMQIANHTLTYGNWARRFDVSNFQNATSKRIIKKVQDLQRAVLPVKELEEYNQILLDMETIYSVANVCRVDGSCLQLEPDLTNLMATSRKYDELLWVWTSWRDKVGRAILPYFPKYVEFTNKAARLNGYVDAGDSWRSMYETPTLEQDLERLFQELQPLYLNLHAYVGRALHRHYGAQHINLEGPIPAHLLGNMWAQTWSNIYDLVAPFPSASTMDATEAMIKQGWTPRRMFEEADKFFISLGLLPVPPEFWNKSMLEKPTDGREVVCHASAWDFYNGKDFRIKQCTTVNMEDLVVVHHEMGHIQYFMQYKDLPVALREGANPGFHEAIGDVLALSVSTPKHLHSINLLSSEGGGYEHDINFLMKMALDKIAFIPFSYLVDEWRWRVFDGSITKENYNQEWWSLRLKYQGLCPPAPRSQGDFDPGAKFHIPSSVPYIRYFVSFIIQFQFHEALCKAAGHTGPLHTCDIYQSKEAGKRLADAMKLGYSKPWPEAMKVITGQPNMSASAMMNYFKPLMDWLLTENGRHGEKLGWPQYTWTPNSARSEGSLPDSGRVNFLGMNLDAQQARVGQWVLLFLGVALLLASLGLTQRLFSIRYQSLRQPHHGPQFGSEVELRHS
Description: (§1) The potential off-target activity of 10 µM (OEG2)2-IP4 was assessed against a panel of 87 enzymes, receptors, or ion channels that are used in standard safety pharmacology screens.
(§2) 3.2. Off-target screening assay
The experiments were conducted by a contract research organization (Eurofins Panlabs Discovery
Services Taiwan, Ltd.) and details on the respective assays can be retrieved via the catalog number
provided in Supplementary Table 11 from the company’s webpage
(§3) (https://www.eurofinsdiscoveryservices.com/). […]

Cannabinoid CB1 = molecular target: T2, Cannabinoid CB1 (Homo sapiens, UniProt P21554); test: Off-target 217030; assay type: binding
T2 construct: purchased Eurofins Panlabs Discovery Services Taiwan, Ltd
T2 sequence (P21554 whole entry): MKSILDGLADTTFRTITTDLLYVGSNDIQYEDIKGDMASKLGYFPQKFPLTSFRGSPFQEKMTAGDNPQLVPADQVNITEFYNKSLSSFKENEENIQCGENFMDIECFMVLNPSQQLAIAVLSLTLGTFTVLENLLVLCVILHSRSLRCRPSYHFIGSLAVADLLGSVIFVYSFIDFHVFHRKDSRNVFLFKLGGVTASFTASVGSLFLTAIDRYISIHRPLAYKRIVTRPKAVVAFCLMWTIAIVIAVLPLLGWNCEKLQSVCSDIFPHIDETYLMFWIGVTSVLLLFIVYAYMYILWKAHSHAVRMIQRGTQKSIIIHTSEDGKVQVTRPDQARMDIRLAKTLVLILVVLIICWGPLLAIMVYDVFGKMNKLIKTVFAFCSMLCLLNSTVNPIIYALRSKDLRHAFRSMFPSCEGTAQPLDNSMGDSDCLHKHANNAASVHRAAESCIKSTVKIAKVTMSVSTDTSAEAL
Description: as §1, §2
(§4) The experiments were conducted by a contract research organization (Eurofins Panlabs Discovery Services Taiwan, Ltd.) and details on the respective assays can be retrieved via the catalog number provided in Supplementary Table 11 from the company’s webpage
as §3
(§5) At sacrifice the left tibia of animals of the rat model with dietary adenine/high-phosphate-induced uremia and VC was collected, fixed with 70% v/v EtOH and embedded in methyl methacrylate. The trabecular bone compartment is known to be the most metabolic active i.e. actively re-structured bone compartment in CKD. Therefore, histomorphometric and micro-computed tomography (µCT) analysis of bone was performed on the trabecular compartment. Tibial sections were Goldner-stained for histomorphometric analysis of the proximal metaphysis using the AxioVision Release 4.5 software, as […]
(§6) described previously5. […]

Progesterone PR-B = molecular target: T3, Progesterone PR-B (Homo sapiens, UniProt P06401); test: Off-target 299005; assay type: binding
T3 construct: purchased Eurofins Panlabs Discovery Services Taiwan, Ltd
T3 sequence (P06401 whole entry): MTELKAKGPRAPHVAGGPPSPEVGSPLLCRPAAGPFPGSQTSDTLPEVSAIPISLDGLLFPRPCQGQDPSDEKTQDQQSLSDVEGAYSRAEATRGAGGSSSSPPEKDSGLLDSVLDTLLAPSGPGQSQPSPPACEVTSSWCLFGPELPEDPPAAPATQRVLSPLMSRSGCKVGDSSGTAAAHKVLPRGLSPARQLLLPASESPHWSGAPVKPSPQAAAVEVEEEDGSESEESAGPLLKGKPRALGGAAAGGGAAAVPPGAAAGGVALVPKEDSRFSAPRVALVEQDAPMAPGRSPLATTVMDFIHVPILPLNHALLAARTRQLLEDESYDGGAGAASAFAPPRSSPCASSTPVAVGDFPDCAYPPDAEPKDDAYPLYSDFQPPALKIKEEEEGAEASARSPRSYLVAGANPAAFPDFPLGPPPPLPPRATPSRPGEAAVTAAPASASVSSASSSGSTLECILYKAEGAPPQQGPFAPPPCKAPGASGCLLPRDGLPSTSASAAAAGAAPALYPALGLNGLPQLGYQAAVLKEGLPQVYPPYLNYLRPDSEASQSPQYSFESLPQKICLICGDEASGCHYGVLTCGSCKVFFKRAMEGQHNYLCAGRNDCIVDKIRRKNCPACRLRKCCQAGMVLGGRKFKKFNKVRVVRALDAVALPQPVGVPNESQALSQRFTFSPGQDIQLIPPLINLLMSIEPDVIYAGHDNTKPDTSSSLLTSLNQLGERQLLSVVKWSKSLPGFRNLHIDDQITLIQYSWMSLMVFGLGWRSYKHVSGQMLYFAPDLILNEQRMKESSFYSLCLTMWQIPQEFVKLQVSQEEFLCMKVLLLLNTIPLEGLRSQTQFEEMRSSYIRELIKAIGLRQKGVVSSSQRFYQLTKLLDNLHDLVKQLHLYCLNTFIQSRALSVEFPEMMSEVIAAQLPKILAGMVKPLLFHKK
Description: as §1, §2, §4, §3, §5, §6

Transporter, GABA = molecular target: T4, Transporter, GABA (Rattus norvegicus, UniProt P23978); test: Off-target 226400; assay type: binding
T4 construct: purchased Eurofins Panlabs Discovery Services Taiwan, Ltd
Description: as §1, §2, §4, §3, §5, §6

COCCOCCO[C@@H]1[C@@H](OP(=O)(O)O)[C@H](OCCOCCOC)[C@@H](OP(=O)(O)O)[C@@H](OP(=O)(O)O)[C@H]1OP(=O)(O)O [(OEG2)2-IP4, 4,6-Di-O-(methoxy-diethyleneglycol)-myo-inositol-1,2,3,5-tetrakis(phosphate)]
Calcium, A. abdominialis (vascular calcification; 5 mg/kg/day): 12.71 ± 11.66 mg/g tissue | Calcium, A. carotis (vascular calcification; 5 mg/kg/day): 11.06 ± 9.10 mg/g tissue | Calcium, A. femoralis (vascular calcification; 5 mg/kg/day): 4.47 ± 3.95 mg/g tissue | Calcium, Heart (vascular calcification; 5 mg/kg/day): 0.05 ± 0.03 mg/g tissue | Von Kossa positive area in the aorta thoracalis (vascular calcification; 5 mg/kg/day): 17.86 ± 12.46% | Mortality (animals) (vascular calcification; 5 mg/kg/day, s.c. osmotic pump, 4 weeks): 0/12 | Calcium, A. abdominialis (vascular calcification; 15 mg/kg/day): 6.24 ± 3.70 mg/g tissue | Calcium, A. carotis (vascular calcification; 15 mg/kg/day): 5.07 ± 6.23 mg/g tissue | Calcium, A. femoralis (vascular calcification; 15 mg/kg/day): 4.14 ± 1.92 mg/g tissue | Calcium, Heart (vascular calcification; 15 mg/kg/day): 0.04 ± 0.01 mg/g tissue | Mortality (animals) (vascular calcification; 15 mg/kg/day): 1/12 | Von Kossa positive area in the aorta thoracalis (vascular calcification; 15 mg/kg/day): 14.35 ± 11.49% | Calcium, A. abdominialis (vascular calcification; 50 mg/kg/day): 1.69 ± 1.80 mg/g tissue | Calcium, A. carotis (vascular calcification; 50 mg/kg/day): 0.84 ± 1.11 mg/g tissue | Calcium, A. femoralis (vascular calcification; 50 mg/kg/day): 2.01 ± 1.41 mg/g tissue | Calcium, Heart (vascular calcification; 50 mg/kg/day): 0.04 ± 0.02 mg/g tissue | Mortality (animals) (vascular calcification; 50 mg/kg/day): 1/12 | Von Kossa positive area in the aorta thoracalis (vascular calcification; 50 mg/kg/day): 2.72 ± 5.97% | calcification in the carotid artery compared to the 5 and 15 mg/kg/day groups (vascular calcification; 50 mg/kg/day): prevented calcification in the carotid artery | calcemic status of the animals (vascular calcification; 50 mg/kg/day for 4 weeks): not influenced | bulk calcium in the abdominal aorta compared to vehicle (vascular calcification; 5, 15, 50 mg/kg/day): trend in a dose-dependent reduction of bulk calcium | reduction in bulk calcium in the femoral artery (vascular calcification; all tested groups): insignificant | dose from which inhibitory effect on heart calcifications was significant (vascular calcification; rat, in vivo): ≥ 15 mg/kg/day | inhibition at 10 µM [1]: -23% | inhibition at 10 µM (Cannabinoid CB1): -7% | inhibition at 10 µM (Progesterone PR-B): -4% | inhibition at 10 µM (Transporter, GABA): 4%
